Assay results: PMC12229529 (Scientific Reports, 2025)

What was measured:
PknB (His-PknB) [1] = biological target: T1, PknB (His-PknB) (Trueperella pyogenes, UniProt A0ABV3NC81); assay: ATP consumption luminescence; type: biochemical; conditions: 20 μM ATP, 10 mM MgCl2, 50 mM Tris-HCl pH 7.8, 1 mM DTT, 25 °C, 30 min
T1 sequence (A0ABV3NC81 1-331): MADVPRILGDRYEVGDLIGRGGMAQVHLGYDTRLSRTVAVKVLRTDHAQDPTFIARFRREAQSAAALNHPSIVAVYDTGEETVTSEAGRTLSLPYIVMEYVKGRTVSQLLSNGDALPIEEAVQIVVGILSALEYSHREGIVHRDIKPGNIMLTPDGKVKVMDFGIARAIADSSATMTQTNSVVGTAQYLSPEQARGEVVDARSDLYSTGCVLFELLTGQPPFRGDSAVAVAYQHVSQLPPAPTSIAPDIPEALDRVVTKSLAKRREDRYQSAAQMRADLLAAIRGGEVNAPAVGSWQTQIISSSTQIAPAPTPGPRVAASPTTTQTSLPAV

PknB (His-PknB) [2] = biological target: T1, PknB (His-PknB); assay: SPR; type: binding; conditions: 1x PBS-P buffer; luteolin 0.3125-10 μmol/L (KD lies above the tested range)
[3] = biological target: serine/threonine protein kinase B (PknB); assay: SPR; type: binding, Trueperella pyogenes

IC50 (PknB (His-PknB) [1]): 221 µM
Kd (PknB (His-PknB) [2]): 312 µM
Kd [3]: 312 µM
Compound: O=c1cc(-c2ccc(O)c(O)c2)oc2cc(O)cc(O)c12 [luteolin]
